Data on 37 compounds can be found in patent US10858335B2 (Rigel Pharmaceuticals, Inc., priority 2014, dated 2020).

Molecules are shown by their SMILES.

The subject of the first assay is GDF8 signaling (p-SMAD-3 (Ser423/425)). Description: AlphaScreen SureFire SMAD3 (p-Ser423/425) assay, GDF8-stimulated cells (GDF pSMAD). The class given is cell-based. The settings on record: MPC11; GDF8-stimulated; p-SMAD3 AlphaScreen; read-out: GDF pSMAD (MPC11) (inhibition of GDF8 signaling). An excerpt:
Biological Example 1: AlphaScreen® SureFire® SMAD3 (p-Ser423/425) Assay
The p-SMAD-3 (Ser423/425) SureFire® assay has been designed to measure the phosphorylation of endogenous cellular p-SMAD-3 (Ser423/425) in cell lysates and is a system for the screening of both modulators of receptor activation (e.g. agonists and antagonists) as well as agents acting intracellularly, such as small molecule inhibitors of upstream events. The assay will measure p-SMAD-3 (Ser423/425) activation by either cloned or endogenous receptors, and can be applied to primary cells.
P-SMAD-3 (Ser423/425) SureFire® Assay Protocols
Step A: Preparation of Buffers
1× Lysis buffer: 1 ml of 5× Lysis buffer was diluted with 4 ml of sterile water. After dilution, excess 1× Lysis buffer can be frozen and thawed up to 5 times without loss in activity.
Activation buffer: The buffer was warmed slowly to 37° C. and gently mixed to re-suspend. Activation buffer can be stored at room temperature with no loss in activity.
Reaction buffer: The buffer was kept at 4° C. while in use.
AlphaScreen® Protein A IgG Kit: The kit was stored at 4° C. in the dark.
Reaction buffer+Activation buffer+AlphaScreen® Acceptor beads: Reaction buffer (40 parts), Activation Buffer (10 parts) and Acceptor beads (1 part) were mixed and the mixture was stored at room temperature and used the same day. Mixture was added to 384-well plates; excess mixture was discarded.
Dilution buffer+AlphaScreen® Donor beads: Dilution buffer (20 parts) and Donor beads (1 part) were mixed and the mixture was stored at room temperature and used the same day. Excess mixture was discarded.
Assay control samples: After reconstitution in 250 μl of water, lysates were at −20° C. in single use aliquots.
Step B: Preparation of Samples and Cells
96-well Assay Protocol for 293FT and RMS13 adherent cells can be carried out manually or in high throughput with liquid handling robots.
The cells (80 μL of cells for 96 well plates) were plated in collagen coated tissue culture plates in RPMI or FreeStyle medium (Invitrogen) and incubated overnight. For manual analysis, 6 plates for GDF8, 6 plates for TGFβ, and optionally 6 plates for AlkSca(ALK5 constitutively active) were used.
The compound dilution plates were prepared as follows: 12 μL of DMSO was transferred into first column of 96-well plate, and 16 μL of DMSO was transferred into columns 2-12 of the 96-well plate. 12 μL of compound solution was transferred into first column of the DMSO-containing 96-well plate. Three-fold dilution was performed up to column 10 of the DMSO-containing 96-well plate.
Step C: Treatment and Analysis
The plate containing cells were treated with compounds for about 10 minutes, and then ligand was added. GDF8 or TGFb was added to plates to stimulate. 293FL cells were stimulated for 90 minutes at 37° C.; and RMS13 cells were stimulated for 60 minutes at 37° C. The medium was then removed from the cells, and 1× Lysis Buffer (about 25 μL) was added and the plate was gently agitated on plate shaker for 5-10 minutes.
The lysate (5 μL) was then placed into 384-well shallow plates avoiding the generation of bubbles. To this, the Reaction Buffer+Activation Buffer+AlphaScreen® Acceptor beads mixture (5 μL) was added. The plate was sealed with adhesive cover and shielded from light (e.g., with metal foil), and agitated gently on plate shaker for 2 hours at room temperature.
Dilution buffer+AlphaScreen® Donor beads (2 μL) was then added, and the plate was intubated on the plate shaker for an additional 1½ hours. After completion, the plate was read on Synergy-4 or Enspire plate reader, using AlphaScreen® pSMAD3® settings.
Representative results for inhibition of GDF8 signaling are shown in Table 2(data=GDF pSMAD (MPC11) (μM)): […]
Background: In Alpha technology, singlet oxygen from a donor bead excites a nearby acceptor bead.
Take `Cc1cc(-c2ncccc2-c2ccc3ncn(CCCN4CCN(C)CC4)c3c2)ccc1F` [Compound 40, 6-(2-(4-Fluoro-3-methylphenyl)pyridin-3-yl)-1-(3-(4-methylpiperazin-1-yl)propyl)-1H-benzo[d]imidazole]: the IC50 was 18500 nM.

Still in this assay, the particulars now being: Mus musculus, MPC-11, MPC11; GDF8-stimulated; p-SMAD3 AlphaScreen; read-out: GDF pSMAD (MPC11) (inhibition of GDF8 signaling).
As for `Cc1cc(-c2ncccc2-c2ccc3ncn(CCCO)c3c2)ccc1F` [Compound 41, 3-(6-(2-(4-Fluoro-3-methylphenyl)pyridin-3-yl)-1H-benzo[d]imidazol-1-yl)propan-1-ol], the IC50 was 3140 nM.
Same read-out and setting: the value for `CCOCCCn1cnc2ccc(-c3cccnc3-c3ccc(F)c(C)c3)cc21` [Compound 42, 1-(3-Ethoxypropyl)-6-(2-(4-fluoro-3-methylphenyl)pyridin-3-yl)-1H-benzo[d]imidazole] was 10500 nM; that for `CCn1cnc2ccc(-c3cccnc3-c3cccc(C)c3)cc21` [Compound 43, 1-Ethyl-6-(2-m-tolylpyridin-3-yl)-1H-benzo[d]imidazole] was 1620 nM.
On the same count and under the same terms, the value for `CCn1cnc2ccc(-c3cccnc3-c3ccc(F)c(C)c3)cc21` [Compound 46, 1-Ethyl-6-(2-(4-fluoro-3-methylphenyl)pyridin-3-yl)-1H-benzo[d]imidazole] was 1730 nM; that for `Cc1cc(-c2ncccc2-c2ccc3ncn(C(C)C)c3c2)ccc1F` [Compound 48, 6-(2-(4-Fluoro-3-methylphenyl)pyridin-3-yl)-1-isopropyl-1H-benzo[d]imidazole] was 8380 nM.
`N#Cc1cccc(-c2ncccc2-c2ccc3nccn3c2)c1` [Compound 51, 3-(3-(Imidazo[1,2-a]pyridin-6-yl)pyridin-2-yl)benzonitrile]: the IC50 is 5440 nM.
As for `COc1cccc(-c2ncccc2-c2ccc3nccn3c2)c1` [Compound 52, 6-(2-(3-Methoxyphenyl)pyridin-3-yl)imidazo[1,2-a]pyridine], the IC50 worked out at 1400 nM.
With `Fc1ccc(-c2ncccc2-c2ccc3nccn3c2)cc1` [Compound 53, 6-(2-(4-Fluorophenyl)pyridin-3-yl)imidazo[1,2-a]pyridine], the IC50 is 13400 nM.
The same measure, in the same setting: the same measure for `Fc1ccccc1-c1ncccc1-c1ccc2[nH]ncc2c1` [Compound 61, 5-(2-(2-Fluorophenyl)pyridin-3-yl)-1H-indazole]: 3880 nM; for `Fc1ccc(-c2ncccc2-c2ccc3[nH]ncc3c2)cc1F` [Compound 62, 5-(2-(3,4-Difluorophenyl)pyridin-3-yl)-1H-indazole]: 804 nM.
Same read-out and setting: the value for `Cc1cc(-c2ncccc2-c2ccc3[nH]ncc3c2)ccc1F` [Compound 63, 5-(2-(4-Fluoro-3-methylphenyl)pyridin-3-yl)-1H-indazole] was 142 nM; that for `c1cnc(-c2ccc3[nH]ncc3c2)c(-c2ccc3[nH]ncc3c2)c1` [Compound 64, 5-(3-(1H-Indazol-5-yl)pyridin-2-yl)-1H-indazole] was 840 nM; that for `Fc1cccc(-c2ncccc2-c2ccc3[nH]ncc3c2)c1` [Compound 65, 5-[2-(3-Fluorophenyl)pyridin-3-yl]-1H-indazole] was 2240 nM.
The same measure, in the same setting: the same measure for `Fc1ccc(-c2ncccc2-c2ccc3[nH]ncc3c2)cc1` [Compound 66, 5-[2-(4-Fluorophenyl)pyridin-3-yl]-1H-indazole]: 1780 nM; for `Fc1cc(F)cc(-c2ncccc2-c2ccc3[nH]ncc3c2)c1` [Compound 67, 5-[2-(3,5-Difluorophenyl)pyridin-3-yl]-1H-indazole]: 1810 nM.
Consider `Cc1cccc(-c2ncccc2-c2ccc3[nH]ncc3c2)c1` [Compound 68, 5-(2-m-Tolylpyridin-3-yl)-1H-indazole], for which the IC50 stood at 186 nM.
Same read-out and setting: the same measure for `Fc1ccc(-c2ncccc2-c2ccc3[nH]ncc3c2)c(F)c1` [Compound 70, 5-[2-(2,4-Difluorophenyl)pyridin-3-yl]-1H-indazole]: 5700 nM; for `Cc1cc(C)cc(-c2ncccc2-c2ccc3[nH]ncc3c2)c1` [Compound 71, 5-[2-(3,5-Dimethylphenyl)pyridin-3-yl]-1H-indazole]: 7010 nM.
On the same count and under the same terms, the value for `Cc1ccc(F)c(-c2ncccc2-c2ccc3[nH]ncc3c2)c1` [Compound 73, 5-(2-(2-Fluoro-5-methylphenyl)pyridin-3-yl)-1H-indazole] was 497 nM; that for `Nc1cccc(-c2ncccc2-c2ccc3[nH]ncc3c2)c1` [Compound 75, 5-(2-(3-Aminophenyl)pyridin-3-yl)-1H-indazole] was 3470 nM.
For the compound `CS(=O)(=O)Nc1cccc(-c2ncccc2-c2ccc3[nH]ncc3c2)c1` [Compound 76, 5-(2-(3-Methylsulfphonylaminophenyl)pyridin-3-yl)-1H-indazole], the IC50 turned out to be 1820 nM.
Same read-out and setting: the same measure for `Fc1ccc(-c2ncccc2-c2cnc3[nH]ncc3c2)cc1F` [Compound 77, 5-(2-(3,4-Difluorophenyl)pyridin-3-yl)-1H-pyrazolo[3,4-b]pyridine]: 3650 nM.
Same read-out and setting: the same measure for `Cc1cc(-c2ncccc2-c2cnc3[nH]ncc3c2)ccc1F` [Compound 78, 5-(2-(4-Fluoro-3-methylphenyl)pyridin-3-yl)-1H-pyrazolo[3,4-b]pyridine]: 316 nM; for `Cc1cccc(-c2ncccc2-c2cnc3[nH]ncc3c2)c1` [Compound 79, 5-(2-m-Tolylpyridin-3-yl)-1H-pyrazolo[3,4-b]pyridine]: 264 nM.
The same measure, in the same setting: the same measure for `Fc1ccc(-c2ncccc2-c2cnc3[nH]ncc3c2)cc1` [Compound 80, 5-(2-(4-Fluorophenyl)pyridin-3-yl)-1H-pyrazolo[3,4-b]pyridine]: 6330 nM; for `OCc1cc(-c2ncccc2-c2ccc3[nH]ncc3c2)ccc1F` [Compound 89, (5-(3-(1H-Indazol-5-yl)pyridin-2-yl)-2-fluorophenyl)methanol]: 2550 nM.
`Cc1cc(-c2ncccc2-c2ccc3[nH]ncc3c2)ccc1N` [Compound 90, 4-(3-(1H-Indazol-5-yl)pyridin-2-yl)-2-methylbenzenamine]: the IC50 was 2610 nM.
With `OCc1cccc(-c2ncccc2-c2ccc3[nH]ncc3c2)c1` [Compound 91, [3-(3-(1H-Indazol-5-yl)pyridin-2-yl)phenyl]methanol], the IC50 stood at 3030 nM.
As to `Fc1ccc(-c2ncccc2-c2ccc3[nH]ncc3c2)cc1C(F)(F)F` [Compound 93, 5-(2-(4-Fluoro-3-(trifluoromethyl)phenyl)pyridin-3-yl)-1H-indazole], the IC50 was 4840 nM.
Still for that read-out and setting: the same measure for `Fc1ccc(-c2ncccc2-c2ccc3cn[nH]c3c2)cc1F` [Compound 98, 6-(2-(3,4-Difluorophenyl)pyridin-3-yl)-1H-indazole]: 10300 nM.
Take `Cc1cc(-c2ncccc2-c2ccc3cn[nH]c3c2)ccc1F` [Compound 99, 6-(2-(4-Fluoro-3-methylphenyl)pyridin-3-yl)-1H-indazole]: the IC50 turned out to be 894 nM.
As to `Fc1cccc(-c2ncccc2-c2ccc3cn[nH]c3c2)c1` [Compound 100, 6-(2-(3-Fluorophenyl)pyridin-3-yl)-1H-indazole], the IC50 is 6030 nM.
The same measure, in the same setting: the value for `Fc1ccc(-c2ncccc2-c2ccc3cn[nH]c3c2)cc1` [Compound 101, 6-(2-(4-Fluorophenyl)pyridin-3-yl)-1H-indazole] was 11200 nM; that for `Cc1cccc(-c2ncccc2-c2ccc3cn[nH]c3c2)c1` [Compound 102, 6-(2-m-Tolylpyridin-3-yl)-1H-indazole] was 341 nM.
Still for that read-out and setting: the value for `Cc1cccc(-c2ncccc2-c2ccc3c(c2)OCO3)c1` [Compound 109, 3-(Benzo[d][1,3]dioxol-6-yl)-2-m-tolylpyridine] was 17200 nM.
On the same count and under the same terms, the same measure for `N#Cc1cccc(-c2ncccc2-c2ccc3[nH]ncc3c2)c1` [Compound 112, 3-(3-(1H-Indazol-5-yl)pyridin-2-yl)benzonitrile]: 273 nM.
